Data reported in US20250114331A1, “CONCURRENT TARGETING OF ONCOGENIC PATHWAYS TO ENHANCE CHEMOTHERAPY AND IMMUNOTHERAPY” (THE JOHNS HOPKINS UNIVERSITY, priority 2021, published 2025).
Like-named read-outs stand apart in the source and are kept apart here.

How the values were obtained:
[1] = test system: MB 49, UPPL595 and BBN975; assay: Cell proliferation, sphere formation and RT-qPCR of CSC markers in VP treated mouse UCB cell lines; format: cell-based; conditions: 1 μM
Protocol: Cell viability assay. Cell proliferation and viability were evaluated using alamarBlue™ Cell Viability Reagent (ThermoFischer Scientific). For cell proliferation assay, after cells (5×10^3/well) were seeded into 96-well plates with culture media containing 10% FBS, the optical density of each well was measured at desired time interval, following the manufacturers protocol. The absorbance was measured by a Spectra Max 250 Plate Reader (Molecular Devices). Cell viability were calculated as percentage over control. Sphere formation assay. Sphere formation was induced by culturing cells (2×10^4/well) in DMEM/Ham's F12 50/50 Mix (Mediatech) supplemented with B-27 (Life Technologies), 20 ng/mL FGF-basic (Peprotech), 20 ng/mL EGF (Peprotech). Cell culture was performed in ultra-low attachment 6 well plates (Corning, Lowell, USA) for 10 days. The medium was replaced every other day. Sphere formation was evaluated using the inverted phase-contrast microscope. RNA extraction and quantitative reverse transcriptase polymerase chain reaction (Q-RT-PCR). Total RNA from cell lines was isolated using the RNeasy Plus Mini Kit (Qiagen, Germantown, USA), according to the manufacturer's protocol. […] The expression levels were quantified relative to β-actin using the 2−ΔΔCt method.

[2] = test system: MB49, UPPL596 and BBN 975; assay: Cell derived xenografts treated with verteporfin; format: in vivo, C57BL/6 mice
Protocol: In vivo xenograft assay and treatment. For in vivo xenograft, cells were suspended in 100 μL of a 1:1 mixture of serum-free DMEM and Cultrex Stem Cell Qualified Reduced Growth Factor Basement Membrane Extract (Trevigen, Gaithersburg, USA), and then injected subcutaneously into the both flanks of C57BL/6 mice for MB49/UPPL595/BBN975 cells. For treatment, animals will be randomized to different treatment groups of 5 mice after growth of tumors to 100 mm3. The potential drugs are anti-PD-L1 monoclonal antibody (B7-H1, Bio X Cell, West Lebanon, USA) and verteporfin (NedKoo, Morrisville, USA). Verteporfin (50 mg/kg) will be administered via i.p. every other day. Anti-PD-L1 monoclonal antibody and the corresponding isotype antibody (200 μg/mouse) were administered via ip injection every 3 to 4 days. Treatment was performed for 14 days. To test the pharmacological inhibition of YAP1 on in vivo tumor growth in NSG and immune competent mice, CDXs were developed using three different mouse derived cancer cell lines (MB49, UPPL596 and BBN 975). Verteporfin was administered interperitoneally at a dose of 50 mg/kg body weight at every other day. […] Tumor mass values also indicate similar trend (FIG. 23C-23E; bottom).

UPPL 595 cells = assay: Wound healing; format: cell-based, mouse; conditions: VP treated versus control cells
H1299 and H1437 cells = assay: qRT-PCR of YAP1 and STAT3 pathway genes after drug treatment for 72 hours; format: cell-based, human
Protocol: qRT-PCR. The mRNA expression level of each gene was determined by qRT-PCR. […] We quantified the β-actin mRNA level to normalize the expression levels of the targeted genes. Each sample was tested in triplicate and run three times. Each graph shown in our figures indicates the average mRNA expression level of targeted genes compared with the β-actin expression level, with standard error of mean. To determine doses of these drugs that are effective for pathway inhibition, H1299 and H1437 cells were treated with verteporfin or S3I-201 for 72 hours.

T24, BFTC905 and BFTC909 = assay: Lipid droplet quantification after VP, human UCB cell lines; format: cell-based; conditions: VP treated
Text: YAP1 influences the accumulation of lipid droplets in cancer cells. […] Therefore, apart from investigating the altered regulation of intracellular signaling cascades, the present inventors also studied cellular metabolism in response to YAP1 modulation. […] It was reported that FABP4 is a critical molecule in accumulation of lipid droplets in the intracellular compartments (45). […] It was also observed that when the culture media was supplemented with oleic acid (commonly used as an inducer for lipid droplet formation), there is an increase accumulation of lipid droplets in the YAP1 expressing cells compared to the KD cells (FIG. 29C). […] As increased amount of L-lactate correlated with more glycolysis and poor prognosis of cancer (46), the present inventors quantified L-lactate in mouse and human UCB cells with YAP1 modulation.

H1437 xenografts = assay: H1437 xenograft treatment; format: in vivo, NSG mice; conditions: verteporfin 50 mg/kg i.p. three times a week; S3I-201 5 mg/kg i.p. every day
Text: For therapeutic experiments, 4- to 5-week-old NOD/SCID/IL2Ry−/− (NSG) mice were obtained from the Johns Hopkins Medical Institute's (Baltimore, MD) animal care facility. We injected H1299 cells (1×106) and H1437 cells (1×106), which were suspended in the mixture as described above, subcutaneously into both flanks. For the patient-derived xenograft (PDX) models, 13 PDX blocks (CTG0162, 0178, 0502, 0848, 1309, 1351, 1358, 1361, 1762, 1885, 2017, 2481, and 2708) were obtained from Champion Oncology. All these PDXs were established from primary lung adenocarcinoma tumors. The tumor tissues were cut into 4×2 mm pieces and implanted in the subcutaneous spaces of both flanks. When tumor volumes reached to 200+50 mm3, mice were randomly assigned to six experimental groups [control, chemo (cisplatin+gemcitabine), chemo+verteporfin, chemo+S3I-201, “all” (cisplatin+gemcitabine+verteporfin+S3I-201), and verteporfin+S3I-201] at 5 mice per group. Cisplatin (Sigma-Aldrich; #P4394), gemcitabine (Medkoo; #100410), S3I-201 (MedKoo; #202541), and verteporfin (Sigma-Aldrich; #1711461) were used to treat the mice. Cisplatin (2.5 mg/kg) and gemcitabine (120 mg/kg) were administrated via intraperitoneal injection once a week (22). […] Each tumor volume was measured every 3 days. Therapeutic efficacy was evaluated from percentage change of the tumor volume compared with the tumor size before treatment.

## C=Cc1c(C)c2cc3nc(cc4[nH]c(cc5nc(cc1[nH]2)C(C)=C5CCC(=O)O)c(CCC(=O)OC)c4C)[C@@]1(C)C3=CC=C(C(=O)OC)[C@H]1C(=O)OC [verteporfin, 3-[(23S,24R)-14-ethenyl-5-(3-methoxy-3-oxopropyl)-22,23-bis(methoxycarbonyl)-4,10,15,24-tetramethyl-25,26,27,28-tetraazahexacyclo[16.6.1.13,6.18,11.113,16.019,24]octacosa-1,3,5,7,9,11(27),12,14,16,18(25),19,21-dodecaen-9-yl]propanoic acid]
[1]
  cancer stemness (cell proliferation, sphere formation, CSC markers): inhibit the development of cancer stemness
[2]; 50 mg/kg body weight i.p. every other day, immune competent mice
  tumor growth: significant regression in tumor growth
[2]; RT-qPCR
  CCN1 and CCN2 expression (YAP1 downstream genes): downregulated
[2]; pharmacodynamic analysis
  YAP1 expression in the tumor tissue: decrease YAP1 expression
UPPL 595 cells
  wound closure: significant difference in wound closure
H1299 and H1437 cells
  mRNA expression of YAP1 and downstream targets CTGF and CYR61: suppressed mRNA expressions of YAP1 and its downstream targets, such as CTGF and CYR61, in a dose-dependent manner
H1299 and H1437 cells; listed as Verteporfin
  mRNA expression of YAP1 and downstream targets CTGF and CYR61: suppressed mRNA expression of YAP1, and its downstream targets, CTGF and CYR61, as the drug concentration was increased
T24, BFTC905 and BFTC909
  accumulation of intracellular lipid droplets: decreases the accumulation of intracellular lipid droplets
H1437 xenografts
  tumor growth: did not significantly affect tumor growth
